According to patent US7727526B2, “Use of PTHrP antagonists for treating renal cell carcinoma” (Universite Louis Pasteur, priority 2002, dated 2010):
“Also recorded” adds a separate entry of the source.

Key:
tumour cells 786-0 [1] = test: Cell proliferation of 786-0 tumour cells (cell count and BrdU incorporation); type: cell-based, human; details: antagonist at different concentrations, medium without serum, 48 hrs
Procedure: (§1) The cells were cultured in plates with 24 wells (1 ml per well) and in plates with 96 well (100 μl per well) at the rate of 10,000 to 30,000 C/ml. The cells were cultivated in the medium with serum described above. For the assays with the RPTH1 antagonists, after 24 hrs of culture, the medium was changed for a medium without serum containing 0.1% BSA (bovine serum albumin, Sigma) and the antibiotics. This manipulation facilitates cultivation of the cells in the absence of the factors present in the serum and facilitates assessment of the influence of the antagonist on cell proliferation. […]
(§2) The cell proliferation was determined by two means, on the one hand by counting the cells (manual counting) using plates with 24 wells and on the other hand by measuring the incorporation of 5-bromo-2′-deoxyuridine (BrdU) using plates with 96 wells.
(§3) The culture medium is removed by suction and an adequate volume of trypsin-EDTA (Sigma) is added. […] The cells are then recovered and manually counted with a counting cell placed under an optic microscope. […]
(§4) For the experiments in vitro, the results of the manual counts are expressed as a percentage of the number of cells present in the control wells. […] The incorporations in response to the treatments are thus expressed as a percentage of the incorporations of positive controls taken as 100% incorporation. […]

tumour cells UOK-126 = test: Cell proliferation of UOK-126 tumour cells (cell count and BrdU incorporation); type: cell-based, human; details: different concentrations, medium without serum, 48 hrs
Procedure: as §1, §2, §3, §4

tumour cells UOK-128 = test: Cell proliferation of UOK-128 tumour cells (cell count and BrdU incorporation); type: cell-based, human; details: different concentrations, medium without serum, 48 hrs
Procedure: as §1, §2, §3, §4

tumour cells 786-0 [2] = test: Analysis of cell death/apoptosis (detachment, OA/EB staining, DNA laddering); type: cell-based, human; details: 48 hrs
Procedure: The cells were treated under control conditions or with either an anti-PTHrP N-terminal antibody at 1.5 μg/ml or a RPTH1 antagonist at 1 μM for 48 hrs. The orange acridine (OA) and the ethidium bromide (EB) were dissolved in a PBS buffer and added at 2 μg/ml in the culture medium. The cells were observed and photographed under fluorescence microscopy, either for the FITC (OA) or for the TRITC (EB). The fragmentation of the internucleosomal DNA was detected by a “DNA laddering” test. The cells were re-suspended in 300 μl of lysis buffer (25 mM EDTA, 1% SDS, 1 mg/ml proteinase K, pH 8) and incubated overnight at 50° C. DNA was extracted by phenol/chloroform, precipitated with ethanol and analysed by electrophoresis on agarose gel.

[3] = tested on: 786-0 cells implanted subcutaneously; test: Pilot protocol: subcutaneous 786-0 tumours in nude mouse, twice weekly injections; type: in vivo; details: for growth of implanted tumours: twice weekly i.p. and intratumoural injections, 25 days (antibody stopped after 18 days), versus control
Procedure: (§5) The 786-0 cells were cultivated in the RPMI 1640 medium supplemented with serum until confluence. The cells were recuperated by trypsination and re-suspended in RPMI 1640 medium without serum and without antibiotics at the rate of 5 million cells/200 μl the same day of implantation of the mice. The cells were implanted subcutaneously in the backs of nude mice at the rate of 200 μl per implantation. A week to 10 days after the implantation of the cells, the tumours developed forming nodules of approximately 60 to 300 mm^3. From this moment, the treatments were initiated according to three protocols: a pilot protocol which was performed in order to determine the effectiveness of the treatments in vivo and carried out on two mice per experimental condition receiving 4 implantations (namely 8 tumours/experimental condition) and two experimental protocols elaborated following the results obtained with the pilot protocol on 10 or 5 mice per experimental condition and receiving 1 or 2 implantations (namely 10 tumours/experimental condition).
Pilot Protocol. In this protocol, 6 mice were separated into three groups: a first group receiving injections of sterile water (control), a second group receiving injections of anti-PTHrP (1-34) antibody (Bachem, dissolved in sterile water) and a third group receiving injections of antagonist (Asn10, Leu11, D-Trp12)PTHrP(7-34) amide (Bachem, dissolved in sterile water). All injections were performed 2 times per week intra-peritoneally (50 μg/mouse of antibody or 20 μg/mouse of antagonist in 200 μl) and in intra-tumoural terms (25 μg/mouse of antibody or 10 μg/mouse of antagonist in […]). […] The volume of the tumours (length×width×depth×0.5236) was manually measured in a blind manner with callipers on days 0, 4, 7, 12, 14, 18, 23 and 25 after the first injection of the compounds under light gas anaesthesia with isoflurane. […]
(§6) For the experiments in vivo in the nude mouse, the results of tumour growths were expressed as a percentage of the size at day 0 of the treatments. The results are expressed as a mean +/−ESM. […]

[4] = tested on: 786-0 cells implanted subcutaneously; test: First experimental protocol: subcutaneous 786-0 tumours in nude mouse, daily RPTH1 antagonist; type: in vivo
Procedure: as §5
First Experimental Protocol. […] Consequently, in this protocol, on the one hand the numbers in each group were increased (10 mice with a tumour/experimental group) and on the other hand daily injections either of water (control) or of the RPTH1 antagonist (dissolved in sterile water) were performed. As for the pilot protocol, all the injections were performed intraperitoneally (200 μl water or 20 μg/mouse of antagonist in 200 μl) and intratumourally (100 μl of water or 10 μg/mouse of antagonist in 100 μl). For this series, the size of the tumours was measured in a blind way twice a week under light gas anaesthesia with isoflurane. At the end of the experimental period, the mice were anaesthetised with pentobarbital. Approximately 0.5 ml of blood was then recovered rapidly through intracardiac puncture of each mouse for the dosage of electrolytes and circulating PTHrP. The tumours were dissected and fixed in formol for subsequent histo-pathological studies (necrotic aspect) and immunohistochemical studies (factor VIII, PTHrP, RPTH1, mitotic index and apoptotic index).
Proliferative and Apoptotic Index. The proliferation index was determined by coloration of tumour section with a monoclonal mouse antibody anti-Ki67 human, Dako, Trappes, France) using standard methods. The detection kit of apoptotic cells based upon the TUNEL method (Roche Diagnostics) was used to measure the apoptotic index on the sections. The total cells and those coloured in 15 fields (0.25 mm^2 each) of the highest cell coloration were counted in order to determine the two indexes which are expressed as a percentage of coloured cells in relation to total cells.
Factor VIII and Microvascular Density. The tumour sections were coloured for the endothelial cells with a rabbit polyclonal antibody anti-human […], (Dako) using standard methods. The density of the micro-vessels was determined by counting the intersection points between vessels and the total number of vessels of 4 to 5 fields (0.25 mm^2 each) showing the highest vascular density.
as §6

[5] = daily antagonist, treated versus control group

## (Asn10, Leu11, D-Trp12)PTHrP(7-34) amide (human, rat) [RPTH1 antagonist]
Tumour cells 786-0 [1]
  inhibition of cell proliferation: 70%
Tumour cells UOK-126
  effect of antagonist on cell proliferation: inhibit very strongly
Tumour cells UOK-128
  effect of antagonist on cell proliferation: strongly inhibit
Tumour cells 786-0 [2]; 1 μM, compared with non-treated cells
  number of cells marked by EB (cell death): clearly increases
Tumour cells 786-0 [2]; 10^−6 M, RPMI 1640 without serum
  cell adherence to the culture support: detaching the cells from the culture support
[3]
  growth of implanted tumours: blocks the growth
[3]; listed as antagonist
  growth of implanted tumours: considerably slowed-down growth; also recorded: greatly slow down tumour growth
[3]; twice weekly treatment, control significant from day 7
  first day of significant tumour growth in comparison to day 0: 12 days
[4]; [5]
  apoptotic index (TUNEL) of tumours: increased twofold
  histopathological analysis of tumours: No polymorphic difference
  number of intersection points of the vessels and total number of vessels per surface area: significantly increased
  proliferation index (Ki67) of tumours: not different
[4]; daily i.p. 20 μg/mouse and intratumoural 10 μg/mouse, 17 days, versus control
  growth of implanted tumours: totally inhibited; also recorded: completely blocks the tumour growth
